Reference: patent publication US10273234B2, “Compounds that are S1P modulating agents and/or ATX modulating agents” (BIOGEN MA INC., priority 2012, dated 2019)

Target: Human ATX protein (Homo sapiens (Human), UniProt Q13822)
Assay: ATX biochemical FRET assay with FS-3 substrate
Settings: 1.0 μg/mL ATX, 2 μM FS-3, 2 hours at room temperature
From the text: ATX (Autotaxin) is a 125 KDa glycoprotein with lysophospholipase D (LPLD) activity that generates the bioactive lipid lysophosphatidic acid (LPA) from lysophosphatidylcholine (LPC). The ATX biochemical assay utilizes a FRET (fluorescence resonance energy transfer) technology platform. The fluorescence signal of FRET substrate FS-3 is quenched due to intra-molecular FRET of a fluorophore to a non-fluorescing quencher (Ferguson, C. G., et al., Org Lett. 2006 May 11; 8(10): 2023-2026, which is incorporated by reference in its entirety). ATX catalyzes the hydrolysis of the substrate which separates the dabsyl quencher from the fluorescein reporter, which becomes fluorescent. The reaction is monitored by a SpectraMax M5 (Molecular Devices, Sunnyvale, Calif.) with at excitation wavelength 485 nm and emission wavelength […].
2×ATX assay buffer: 100 mM Tris, 280 mM NaCl, 10 mM KCl, 2 mM CaCl2, 2 mM MgCl2, pH 7.4.
Human ATX protein: expressed and purified in house. Stored at −80° C.
Substrate FS-3 (Echelon, L-2000): 100 μg in 77.74 μL H2O (1 mM stock), stored at −20° C.
Compound dilution—All compounds were provided at 10 mM in 100% DMSO. In the first well, 2 μL of 10 mM compound was added to 78 μL of DMSO (1:40 dilution). In subsequent wells 3-fold dilution (total 10 dilutions) were performed.
1×ATX assay buffer was made up with a final concentration of 1 mg/mL fatty acid free-BSA using 2×ATX assay buffer, 10 mg/ml fatty acid free-BSA and ddH2O.
ATX protein was diluted with 1×ATX assay buffer to a concentration of 1.32 μg/mL (1.32×). 38 μL was added per well to the assay plate. The final concentration of ATX in the reaction as 1.0 μg/mL.
2 μL per well of compounds was transferred to provide the desired concentration. The plate was centrifuged, then incubated at room temperature for 30 minutes on the shaker.
FS-3 was diluted with 1×ATX assay buffer to a concentration of FS-3 of 10 μM (5×). Then, 10 μL was added per well to the assay plate. The final concentration of FS-3 in the reaction was 2 μM. The plate was centrifuged. The plate was kept shaking at room temperature for 2 hours. Because FS-3 substrate is light sensitive, plates were kept covered and protected from light.
Fluorescence was measured using SpectraMax M5 (excitation at 485 nm/emission at 538 nm, top read).

| Structure (SMILES) | IC50 [µM] |
| --- | --- |
| CC(C)(C)[C@H]1CC[C@H](Oc2cccc3cc(CN4CC(C(=O)O)C4)ccc23)CC1 [Example 4, 1-((5-((trans-4-(tert-butyl)cyclohexyl)oxy)naphthalen-2-yl)methyl)azetidine-3-carboxylic acid] | < 0.5 |
| O=C(O)C1CCN(Cc2ccc3c(O[C@H]4CC[C@@H](C(F)(F)F)CC4)cccc3c2)CC1 [Example 10, 1-((5-((cis-4-(trifluoromethyl)cyclohexyl)oxy)naphthalen-2-yl)methyl)piperidine-4-carboxylic acid] | > 5 |
| CC(C)(C)[C@H]1CC[C@H](Oc2cccc3cc(CN4C5CCC4CC(C(=O)O)C5)ccc23)CC1 (stereo partly drawn) [Example 1, 8-((5-((trans-4-(tert-butyl)cyclohexyl)oxy)naphthalen-2-yl)methyl)-8-azabicyclo[3.2.1]octane-3-carboxylic acid] | 0.5 to 5 |
| CCCCCCCOc1cccc2cc(CN3CCC(C(=O)O)CC3)ccc12 [Example 25, 1-((5-(heptyloxy)naphthalen-2-yl)methyl)piperidine-4-carboxylic acid] | > 5 |
| CC1(C)C(NCc2ccc3c(O[C@H]4CC[C@H](C(C)(C)C)CC4)cccc3c2)CC1C(=O)O (stereo partly drawn) [Example 3, 3-(((5-((trans-4-(tert-butyl)cyclohexyl)oxy)naphthalen-2-yl)methyl)amino)-2,2-dimethylcyclobutanecarboxylic acid] | 0.5 to 5 |
| CC(C)(C)[C@H]1CC[C@H](Oc2cccc3cc(CN4CCCC(C(=O)O)CC4)ccc23)CC1 (stereo partly drawn) [Example 8, 1-((5-((trans-4-(tert-butyl)cyclohexyl)oxy)naphthalen-2-yl)methyl)azepane-4-carboxylic acid] | > 5 |
| O=C(O)C1CN(Cc2ccc3c(O[C@H]4CC[C@H](C(F)(F)F)CC4)cccc3c2)C1 [Example 20, 1-((5-((trans-4-(trifluoromethyl)cyclohexyl)oxy)naphthalen-2-yl)methyl)azetidine-3-carboxylic acid] | 0.5 to 5 |
| CC(C)(C)[C@H]1CC[C@H](Oc2cccc3cc(CNC4CC(C(=O)O)C4)ccc23)CC1 (stereo partly drawn) [Example 7, 3-(((5-((trans-4-(tert-butyl)cyclohexyl)oxy)naphthalen-2-yl)methyl)amino)cyclobutanecarboxylic acid] | 0.5 to 5 |
| C[C@H]1CC[C@@H](Oc2cccc3cc(CN4C5CCCC4CC(C(=O)O)C5)ccc23)CC1 (stereo partly drawn) [Example 26, 9-((5-((cis-4-methylcyclohexyl)oxy)naphthalen-2-yl)methyl)-9-azabicyclo[3.3.1]nonane-3-carboxylic acid] | 0.5 to 5 |
| CC(C)(C)[C@H]1CC[C@H](Oc2cccc3cc(CN4CC5CC(C(=O)O)CC5C4)ccc23)CC1 (stereo partly drawn) [Example 5, 2-((5-((trans-4-(tert-butyl)cyclohexyl)oxy)naphthalen-2-yl)methyl)octahydrocyclopenta[c]pyrrole-5-carboxylic acid] | 0.5 to 5 |
| CCCC[C@H]1CC[C@H](Oc2cccc3cc(CN4CC(C(=O)O)C4)ccc23)CC1 [Example 22, 1-((5-((trans-4-butylcyclohexyl)oxy)naphthalen-2-yl)methyl)azetidine-3-carboxylic acid] | > 5 |
| C[C@H]1CC[C@H](Oc2cccc3cc(CN4CC(C(=O)O)C4)ccc23)CC1 [Example 17, 1-((5-((trans-4-methylcyclohexyl)oxy)naphthalen-2-yl)methyl)azetidine-3-carboxylic acid] | > 5 |
| C[C@H]1CC[C@@H](Oc2cccc3cc(CN4C5CCC4CC(C(=O)O)C5)ccc23)CC1 (stereo partly drawn) [Example 27, 8-((5-((cis-4-methylcyclohexyl)oxy)naphthalen-2-yl)methyl)-8-azabicyclo[3.2.1]octane-3-carboxylic acid] | 0.5 to 5 |
| CC(C)(C)[C@H]1CC[C@H](Oc2cccc3cc(CN4C5CCCC4CC(C(=O)O)C5)ccc23)CC1 (stereo partly drawn) [Example 2, 9-((5-((trans-4-(tert-butyl)cyclohexyl)oxy)naphthalen-2-yl)methyl)-9-azabicyclo[3.3.1]nonane-3-carboxylic acid] | > 5 |
| CC[C@H]1CC[C@H](Oc2cccc3cc(CN4CC(C(=O)O)C4)ccc23)CC1 [Example 19, 1-((5-((trans-4-ethylcyclohexyl)oxy)naphthalen-2-yl)methyl)azetidine-3-carboxylic acid] | 0.5 to 5 |
| O=C(O)C1CN(Cc2ccc3c(O[C@H]4CC[C@H](c5ccccc5)CC4)cccc3c2)C1 [Example 18, 1-((5-((trans-4-phenylcyclohexyl)oxy)naphthalen-2-yl)methyl)azetidine-3-carboxylic acid] | > 5 |
| O=C(O)C1CN(Cc2ccc3c(O[C@H]4CC[C@H](C5CCCC5)CC4)cccc3c2)C1 [Example 23, 1-((5-((trans-4-cyclopentylcyclohexyl)oxy)naphthalen-2-yl)methyl)azetidine-3-carboxylic acid] | > 5 |

The remaining lines, values ahead:

| IC50 [µM] | Structure (SMILES) |
| --- | --- |
| 0.5 to 5 | CC(C)[C@H]1CC[C@H](Oc2cccc3cc(CN4CCC(C(=O)O)CC4)ccc23)CC1 [Example 13, 1-((5-((trans-4-isopropylcyclohexyl)oxy)naphthalen-2-yl)methyl)piperidine-4-carboxylic acid] |
| 0.5 to 5 | O=C(O)C1CCN(Cc2ccc3c(O[C@H]4CC[C@H](C(F)(F)F)CC4)cccc3c2)CC1 [Example 9, 1-((5-((trans-4-(trifluoromethyl)cyclohexyl)oxy)naphthalen-2-yl)methyl)piperidine-4-carboxylic acid] |
| 0.5 to 5 | CC[C@H]1CC[C@@H](Oc2cccc3cc(CN4CCC(C(=O)O)CC4)ccc23)CC1 [Example 12, 1-((5-((cis-4-ethylcyclohexyl)oxy)naphthalen-2-yl)methyl)piperidine-4-carboxylic acid] |
| > 5 | C[C@H]1CC[C@@H](Oc2cccc3cc(CN4CCC(C(=O)O)CC4)ccc23)CC1 [Example 28, 1-((5-((cis-4-methylcyclohexyl)oxy)naphthalen-2-yl)methyl)piperidine-4-carboxylic acid] |
| < 0.5 | CC(C)(C)[C@H]1CC[C@H](Oc2cccc3cc(CN4CCC(C(=O)O)CC4)ccc23)CC1 [Example 24, 1-((5-((trans-4-(tert-butyl)cyclohexyl)oxy)naphthalen-2-yl)methyl)piperidine-4-carboxylic acid] |
| > 5 | CC(C)[C@H]1CC[C@H](Oc2cccc3cc(CN4CC(C(=O)O)C4)ccc23)CC1 [Example 21, 1-((5-((trans-4-isopropylcyclohexyl)oxy)naphthalen-2-yl)methyl)azetidine-3-carboxylic acid] |
| 0.5 to 5 | CC[C@H]1CC[C@H](Oc2cccc3cc(CN4CCC(C(=O)O)CC4)ccc23)CC1 [Example 14, 1-((5-((trans-4-ethylcyclohexyl)oxy)naphthalen-2-yl)methyl)piperidine-4-carboxylic acid] |
| > 5 | CC(C)[C@H]1CC[C@@H](Oc2cccc3cc(CN4CCC(C(=O)O)CC4)ccc23)CC1 [Example 11, 1-((5-((cis-4-isopropylcyclohexyl)oxy)naphthalen-2-yl)methyl)piperidine-4-carboxylic acid] |
| 0.5 to 5 | C[C@H]1CC[C@H](Oc2cccc3cc(CN4CCC(C(=O)O)CC4)ccc23)CC1 [Example 15, 1-((5-((trans-4-methylcyclohexyl)oxy)naphthalen-2-yl)methyl)piperidine-4-carboxylic acid] |
